Test results: ChEMBL document CHEMBL1201862, “PubChem BioAssay data set” (2004)
Calls of active or inactive are those of the source. Rule as the data show it, for most assays here: actives have a measured EC50 and inactives only a lower limit.

How the values were obtained:
[1] = biological target: Luciferin 4-monooxygenase (Photinus pyralis, UniProt P08659); assay: firefly luciferase enzyme inhibitors, dose response, biochemical, luminescence (AID 1891)
[2] = biological target: T1, RNA-binding protein pos-1 (Caenorhabditis elegans, UniProt G5EF15); assay: inhibitors of POS-1/mex-3 RNA binding, dose response, biochemical, fluorescence polarization (AID 1964);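 also: purified POS-1 fused to maltose binding protein made in E. coli; potency of compounds blocking POS-1 binding to fluorescent RNA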
T1 sequence (G5EF15 whole entry): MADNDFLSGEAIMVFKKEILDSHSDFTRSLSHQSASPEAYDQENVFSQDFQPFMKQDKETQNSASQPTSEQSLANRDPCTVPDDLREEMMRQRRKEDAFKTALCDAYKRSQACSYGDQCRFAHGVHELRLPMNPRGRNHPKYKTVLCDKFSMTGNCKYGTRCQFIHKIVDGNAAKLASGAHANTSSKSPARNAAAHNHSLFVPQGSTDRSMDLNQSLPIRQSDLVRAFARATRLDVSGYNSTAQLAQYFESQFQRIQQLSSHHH

[3] = Luminescence Cell-Based Dose Confirmation HTS to Identify Inhibitors of Platelet Dense Granule Release. [Related pubchem assays: 1663 (Primary HTS), 1678 (Summary of Project)]; type: functional
H4 = assay: Luminescence Cell-Based Dose Response HTS to Identify Activators of 5'UTR Stem-Loop Driven Prion Protein mRNA Translation in H4 Neuroglioblastoma Cells. [Related pubchem assays: 1829 (Project Summary), 1814 (Primary HTS)]; type: functional; conditions: Homo sapiens
[4] = Luminescence Cell-Based Dose Confirmation HTS to Identify Activators of 5'UTR Stem-Loop Driven Alpha-Synuclein mRNA Translation in H4 Neuroglioblastoma Cells. [Related pubchem assays: 1829 (Project Summary), 1814 (Primary HTS)]; type: functional
[5] = Luminescence Cell-Based Dose Response HTS to Identify Activators of Luciferase Translation or Activity in H4 […] Cells. [Related pubchem assays: 1829 (Project Summary), 1814 (Primary HTS)]; type: functional
Cytochrome P450 2C9 = Cytochrome P450 2C9 (Homo sapiens, UniProt P11712)
[6] = inhibitors of SNCA 5'UTR-driven reporter translation, confirmation, H4 neuroglioma cells, luminescence (AID 1988); type: functional, cell-based
[7] = Luminescence Cell-Based Dose Retest to Confirm Inhibitors of Cancer Stem Cells. [Related pubchem assays (depositor defined):AID2717, AID2721]; type: functional; conditions: Homo sapiens
[8] = inhibitors of firefly luciferase expression or activity, dose response, H4 neuroglioma cells, luminescence (AID 1990); type: functional, cell-based
[9] = Luminescence Cell-Based Dose Response HTS to Identify Inhibitors of 5'UTR Stem-Loop Driven Prion Protein mRNA Translation in H4 Neuroglioblastoma Cells. [Related pubchem assays: 1827 (Project Summary), 1813 (Primary HTS)]; type: functional

Chain of Luciferin 4-monooxygenase (P08659 whole entry, the tested form may be a part): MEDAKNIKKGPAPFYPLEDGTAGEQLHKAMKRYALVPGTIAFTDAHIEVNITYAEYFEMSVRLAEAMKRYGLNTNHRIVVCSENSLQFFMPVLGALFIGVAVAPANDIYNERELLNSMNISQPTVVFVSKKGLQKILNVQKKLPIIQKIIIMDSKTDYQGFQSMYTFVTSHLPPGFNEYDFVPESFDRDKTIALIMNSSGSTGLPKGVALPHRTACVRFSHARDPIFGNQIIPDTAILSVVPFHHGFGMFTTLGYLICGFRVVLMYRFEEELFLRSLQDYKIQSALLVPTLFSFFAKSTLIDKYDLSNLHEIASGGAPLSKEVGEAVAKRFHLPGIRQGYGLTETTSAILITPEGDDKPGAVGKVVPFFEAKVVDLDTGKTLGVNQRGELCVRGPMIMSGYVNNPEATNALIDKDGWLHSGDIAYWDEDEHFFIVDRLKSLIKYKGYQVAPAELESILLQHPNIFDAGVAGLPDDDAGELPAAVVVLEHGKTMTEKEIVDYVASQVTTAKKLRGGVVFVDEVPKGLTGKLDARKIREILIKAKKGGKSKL
Chain of Cytochrome P450 2C9 (P11712 whole entry): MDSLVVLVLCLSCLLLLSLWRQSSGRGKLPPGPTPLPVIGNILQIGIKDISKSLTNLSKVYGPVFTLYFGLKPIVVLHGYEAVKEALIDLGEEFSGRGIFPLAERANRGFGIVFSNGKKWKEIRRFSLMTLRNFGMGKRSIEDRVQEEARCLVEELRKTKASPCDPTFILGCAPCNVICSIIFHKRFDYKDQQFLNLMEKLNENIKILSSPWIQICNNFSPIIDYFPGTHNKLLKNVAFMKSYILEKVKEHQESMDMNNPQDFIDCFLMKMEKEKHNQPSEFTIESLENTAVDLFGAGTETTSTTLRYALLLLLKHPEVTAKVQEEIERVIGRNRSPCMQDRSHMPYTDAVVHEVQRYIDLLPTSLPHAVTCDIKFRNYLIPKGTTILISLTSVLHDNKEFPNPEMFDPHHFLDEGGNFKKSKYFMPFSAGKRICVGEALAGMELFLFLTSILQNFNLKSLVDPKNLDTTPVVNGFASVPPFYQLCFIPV

Question: Which EC50 [1] does the source give for `Cc1n[nH]c(S/C(C(=O)O)=C2/C(=O)Nc3ccccc32)n1` here?
Answer: The EC50 was 15.9 µM (active).

Question: And the EC50 [2]?
Answer: Its EC50 is > 300 µM (not active).

Question: And the EC50 [3]?
Answer: Its EC50 is > 112 µM (not active).

Question: Which EC50 (H4) does the source give for `Cc1c(OCc2ccccc2)c(=O)ccn1Cc1ccccc1` here?
Answer: The EC50 was 8.26 µM (active).

Question: What about the EC50 [4] of the same molecule?
Answer: Its EC50 is 13.4 µM (active).

Question: What about the EC50 [5] of the same molecule?
Answer: The EC50 was 9.62 µM (active).

Question: What does the source list for `Cc1ccc(NC(=O)CC2C(=O)NC3CCCCC3N2C(=O)c2ccc(F)cc2)cc1C` (configuration not stated)?
Answer: EC50 [1]: > 112 µM (not active); EC50 [3]: > 112 µM (not active)

Question: With `Cc1ccc(-c2csc(NC(CO)c3nc4ccccc4n3CCOCCO)n2)cc1` (configuration not stated) as the molecule, how does the EC50 (H4) read?
Answer: Its EC50 is 17.3 µM (active).

Question: And the EC50 [4]?
Answer: The EC50 was > 120 µM (not active).

Question: And the EC50 [5]?
Answer: Its EC50 is > 120 µM (not active).

Question: What does the source list for `CCCCOC(=O)CCc1c(C)nc(O)c(C#N)c1C`?
Answer: AC50 (Cytochrome P450 2C9): 282 nM (inconclusive); EC50 [1]: > 112 µM (not active); EC50 [3]: 6.36 µM (active)

Question: With `Cc1nnc2ccc(-c3ccc(NC(=O)c4ccco4)cc3)nn12` as the molecule, how does the EC50 (H4) read?
Answer: Its EC50 is > 120 µM (not active).

Question: And the EC50 [4]?
Answer: The EC50 was 18.5 µM (active).

Question: What about the EC50 [5] of the same molecule?
Answer: Its EC50 is 14.4 µM (active).

Question: For `CN(C)c1ccc(-n2cc3c(=O)n(C)c(=O)n(C)c3c2)cc1`, which EC50 (H4) is on record?
Answer: The EC50 was 42.3 µM (active).

Question: And the EC50 [4]?
Answer: The EC50 was 45 µM (active).

Question: And the EC50 [5]?
Answer: Its EC50 is 21 µM (active).

Question: Which EC50 [1] does the source give for `COc1ccc(NC(=O)c2cccs2)cc1` here?
Answer: The EC50 was 17.4 µM (active).

Question: What about the EC50 [3] of the same molecule?
Answer: The EC50 was 18.6 µM (active).

Question: Which results are given for `N#CCCN(C(=O)COC(=O)CCc1c[nH]c2ccccc12)c1ccc(F)cc1`?
Answer: EC50 [1]: > 112 µM (not active); EC50 [3]: 45.7 µM (active)

Question: For `Cc1cc(Nc2cccc([N+](=O)[O-])c2)c2cccc(C)c2n1`, which EC50 [1] is on record?
Answer: Its EC50 is > 112 µM (not active).

Question: And the EC50 [3]?
Answer: The EC50 was > 112 µM (not active).

Question: Which EC50 (H4) does the source give for `CC(=O)c1sc(N/N=C2\CC3CC2C(C)C3(C)C)nc1C` (configuration not stated) here?
Answer: The EC50 was 11 µM (active).

Question: What about the EC50 [4] of the same molecule?
Answer: Its EC50 is 0.411 µM (active).

Question: What about the EC50 [5] of the same molecule?
Answer: Its EC50 is 12.9 µM (active).

Question: For `O=C(Cn1c2ccccc2c(=O)c2ccccc21)N/N=C/c1ccc(N2CCCC2)c([N+](=O)[O-])c1`, which EC50 [6] is on record?
Answer: The EC50 was 5.08 µM (active).

Question: And the AC50 [7]?
Answer: The AC50 was 483 nM (active).

Question: What about the EC50 [1] of the same molecule?
Answer: Its EC50 is > 112 µM (not active).

Question: What about the EC50 [8] of the same molecule?
Answer: Its EC50 is 5.67 µM (active).

Question: And the EC50 [3]?
Answer: Its EC50 is 27.4 µM (active).

Question: What about the EC50 [9] of the same molecule?
Answer: The EC50 was 7.94 µM (active).

Question: With `COc1ccc(/C=N/N=C(/N)N[N+](=O)[O-])c(OC)c1` as the molecule, how does the EC50 [1] read?
Answer: The EC50 was > 112 µM (not active).

Question: What about the EC50 [3] of the same molecule?
Answer: Its EC50 is 2.39 µM (active).
